For the data set, the system named is patients ≥2 and <25 years with brain cancer. Nature of the data set: Phase I/II trial of single agent mirdametinib in children, adolescents and young adults with brain cancer. The format is in vivo, human. How it is done: A multi-arm phase I/II trial of mirdametinib is to be conducted in patients ≥2 and <25 years with brain cancer. Phase I requires participants have no prior exposure to MEK inhibitors and recurrent/progressive disease with biopsy-proven evidence of MAPK pathway activation. Three escalating dose levels (2 mg/m^2/dose BID, 2.5 mg/m^2/dose BID and 3 mg/m^2/dose BID) are planned using a rolling 6 design. The median age enrolled in the study is 10 years old (3-21).

Where [1] appears, read: patients with brain cancer, 2-3 mg/m^2/dose BID.

As to `O=C(NOC[C@H](O)CO)c1ccc(F)c(F)c1Nc1ccc(I)cc1F` (single isomer, unassigned) [mirdametinib], the dose-limiting toxicities result (all three dose levels (2, 2.5 and 3 mg/m^2/dose BID), continuous dosing, patients with brain cancer) is “No dose-limiting toxicities”. Moreover, the tolerability result (dosed continuously in patients with brain cancer) is on record as “well-tolerated”. In addition, under setting [1], the “MEK related retinopathy or cardiopathy” value is reported as “No MEK related retinopathy or cardiopathy is observed” and the disease progressions entry was “No disease progressions”.

The record behind these values is US12220390B2, “Mirdametinib treatment” (SpringWorks Therapeutics, Inc., priority 2022, dated 2025).
